# From patent US20080009511A1, “Cancer treatment with compounds inhibiting PKC alpha” (priority 2004, published 2008)
# Assays:
# [1] = test system: human cancer cells; experiment: Cell viability assay, summary over the panel of cancer cells; format: cell-based; conditions: 10 micromoles; day 6; cell lines not named as going to apoptosis
# Description: (§1) The following cancer cells were maintained in Dulbecco's modified Eagle medium (DMEM) supplemented with 10 percent bovine calf serum. Cells were seeded for 24 hours. Then they were treated with PKC inhibitors or left untreated. The cells were then collected periodically and evaluated using trypan blue dye exclusion to assess viability using the method described by C Y Chen, et al., in J. Biol. Chem. 273:16700-16709. Cultures containing about 4×10^4 cells were treated with or without 10 micromoles of Gö6850 and the viable cells were counted at day 6. […] Cultures containing about 4×10^4 cells were treated with or without 10 micromoles of NGIC-I and the viable cells were counted at day 6. […] Cultures containing about 4×10^4 cells were treated with or without 10 micromoles of Ro31-7549 and the viable cells were counted at day 6. […] Cultures containing about 4×10^4 cells were treated with or without 10 micromoles of Ro31-8220 and the viable cells were counted at day 6. […] Cultures containing about 4×10^4 cells were treated with or without 10 micromoles of Ro31-8425 and the viable cells were counted at day 6. […] Cultures containing about 4×10^4 cells were treated with or without 10 micromoles of Ro31-0432 and the viable cells were counted at day 6.
# [2] = test system: U251 human glioma cells; experiment: Cell viability assay (trypan blue dye exclusion), viable cells counted at day 6; format: cell-based; conditions: 10 micromoles; for Treated (cell number × 10^5): about 4×10^4 cells seeded, untreated 9.6 ± 0.5; for % inhibiton: growth vs untreated
# Description: as §1, with “273:16700-16709. Cultures containing about 4×10^4 cells were treated with 5 micromoles of Gö7874 (except that PC3 prostate cancer cells were treated with 10 micromoles) and the viable cells were counted at day 6. […]” for “273:16700-16709.”
# [3] = test system: HepG2 human liver cancer cells; experiment: as above; format: cell-based; conditions: 10 micromoles; for Treated (cell number × 10^5): about 4×10^4 cells seeded, untreated 4.2 ± 0.4; for % inhibiton: growth vs untreated
# Description: as §1, with “273:16700-16709. Cultures containing about 4×10^4 cells were treated with 5 micromoles of Gö7874 (except that PC3 prostate cancer cells were treated with 10 micromoles) and the viable cells were counted at day 6. […]” for “273:16700-16709.”
# [4] = test system: PANC-1 human pancreatic carcinoma cells; experiment: as above; format: cell-based; conditions: 10 micromoles; for Treated (cell number × 10^5): about 4×10^4 cells seeded, untreated 2.1 ± 0.3; for % inhibiton: growth vs untreated
# Description: as §1, with “273:16700-16709. Cultures containing about 4×10^4 cells were treated with 5 micromoles of Gö7874 (except that PC3 prostate cancer cells were treated with 10 micromoles) and the viable cells were counted at day 6. […]” for “273:16700-16709.”
# [5] = test system: A431 human epidermoid carcinoma cells; experiment: as above; format: cell-based; conditions: 10 micromoles; for Treated (cell number × 10^5): about 4×10^4 cells seeded, untreated 5.4 ± 0.4; for % inhibiton: growth vs untreated
# Description: as §1, with “273:16700-16709. Cultures containing about 4×10^4 cells were treated with 5 micromoles of Gö7874 (except that PC3 prostate cancer cells were treated with 10 micromoles) and the viable cells were counted at day 6. […]” for “273:16700-16709.”
# [6] = test system: Hela human cervical cancer cells; experiment: as above; format: cell-based; conditions: 10 micromoles; for Treated (cell number × 10^5): about 4×10^4 cells seeded, untreated 3.4 ± 0.4; for % inhibiton: growth vs untreated
# Description: as §1, with “273:16700-16709. Cultures containing about 4×10^4 cells were treated with 5 micromoles of Gö7874 (except that PC3 prostate cancer cells were treated with 10 micromoles) and the viable cells were counted at day 6. […]” for “273:16700-16709.”
# [7] = test system: Jurkat cells (a human acute T-cell leukemia cell line); experiment: as above; format: cell-based; conditions: 10 micromoles; for Treated (cell number × 10^5): about 4×10^4 cells seeded, untreated 8.8 ± 0.4; for % inhibiton: growth vs untreated
# Description: as §1, with “273:16700-16709. Cultures containing about 4×10^4 cells were treated with 5 micromoles of Gö7874 (except that PC3 prostate cancer cells were treated with 10 micromoles) and the viable cells were counted at day 6. […]” for “273:16700-16709.”
# [8] = test system: MDA-MB-468 human breast cancer cells; experiment: as above; format: cell-based; conditions: 10 micromoles; for Treated (cell number × 10^5): about 4×10^4 cells seeded, untreated 6.1 ± 0.4; for % inhibiton: growth vs untreated
# Description: as §1, with “273:16700-16709. Cultures containing about 4×10^4 cells were treated with 5 micromoles of Gö7874 (except that PC3 prostate cancer cells were treated with 10 micromoles) and the viable cells were counted at day 6. […]” for “273:16700-16709.”
# [9] = test system: PC3 human prostate cancer cells; experiment: as above; format: cell-based; conditions: 10 micromoles; for Treated (cell number × 10^5): about 4×10^4 cells seeded, untreated 7.1 ± 0.3; for % inhibiton: growth vs untreated
# Description: as §1, with “273:16700-16709. Cultures containing about 4×10^4 cells were treated with 5 micromoles of Gö7874 (except that PC3 prostate cancer cells were treated with 10 micromoles) and the viable cells were counted at day 6. […]” for “273:16700-16709.”
# [10] = test system: AGS human gastric cancer cells; experiment: as above; format: cell-based; conditions: 10 micromoles; for Treated (cell number × 10^5): about 4×10^4 cells seeded, untreated 2.4 ± 0.3; for % inhibiton: growth vs untreated
# Description: as §1, with “273:16700-16709. Cultures containing about 4×10^4 cells were treated with 5 micromoles of Gö7874 (except that PC3 prostate cancer cells were treated with 10 micromoles) and the viable cells were counted at day 6. […]” for “273:16700-16709.”
# [11] = test system: H460 human lung cancer cells; experiment: as above; format: cell-based; conditions: 10 micromoles; for Treated (cell number × 10^5): about 4×10^4 cells seeded, untreated 2.4 ± 0.2; for % inhibiton: growth vs untreated
# Description: as §1, with “273:16700-16709. Cultures containing about 4×10^4 cells were treated with 5 micromoles of Gö7874 (except that PC3 prostate cancer cells were treated with 10 micromoles) and the viable cells were counted at day 6. […]” for “273:16700-16709.”
# [12] = test system: NBT-II human bladder cancer cells; experiment: as above; format: cell-based; conditions: 10 micromoles; for Treated (cell number × 10^5): about 4×10^4 cells seeded, untreated 2.9 ± 0.4; for % inhibiton: growth vs untreated
# Description: as §1, with “273:16700-16709. Cultures containing about 4×10^4 cells were treated with 5 micromoles of Gö7874 (except that PC3 prostate cancer cells were treated with 10 micromoles) and the viable cells were counted at day 6. […]” for “273:16700-16709.”
# [13] = test system: HT29 human colon cancer cells; experiment: as above; format: cell-based; conditions: 10 micromoles; for Treated (cell number × 10^5): about 4×10^4 cells seeded, untreated 3.8 ± 0.4; for % inhibiton: growth vs untreated
# Description: as §1, with “273:16700-16709. Cultures containing about 4×10^4 cells were treated with 5 micromoles of Gö7874 (except that PC3 prostate cancer cells were treated with 10 micromoles) and the viable cells were counted at day 6. […]” for “273:16700-16709.”
# [14] = test system: KB oral cancer cells; experiment: as above; format: cell-based, human; conditions: 10 micromoles; for Treated (cell number × 10^5): about 4×10^4 cells seeded, untreated 3.8 ± 0.4; for % inhibiton: growth vs untreated
# Description: as §1, with “273:16700-16709. Cultures containing about 4×10^4 cells were treated with 5 micromoles of Gö7874 (except that PC3 prostate cancer cells were treated with 10 micromoles) and the viable cells were counted at day 6. […]” for “273:16700-16709.”
SMILES,"inhibition of growth in contrast to untreated cells, range over the other treated cancer cells [1]",Treated (cell number × 10^5) [2],% inhibiton [2],Treated (cell number × 10^5) [3],% inhibiton [3],Treated (cell number × 10^5) [4],% inhibiton [4],Treated (cell number × 10^5) [5],% inhibiton [5],Treated (cell number × 10^5) [6],% inhibiton [6],Treated (cell number × 10^5) [7],% inhibiton [7],% inhibiton [8],Treated (cell number × 10^5) [9],% inhibiton [9],Treated (cell number × 10^5) [10],% inhibiton [10],Treated (cell number × 10^5) [11],% inhibiton [11],other results
"Cn1cc(C2=C(c3cn(CCCN)c4ccccc34)C(=O)NC2=O)c2ccccc21 [Ro31-7549, 2-[1-3(Aminopropyl)indol-3-yl]-3(1-methyl-1H-indol-3-yl)maleimide, Acetate]",43-92%,1.9 × 10^5,80%,0 × 10^5,"* (indicates the inhibitor causes significant cell death, and cell number is less than originally seeded cell number.)",1.2 × 10^5,43%,2.8 × 10^5,48%,6 × 10^5,"* (indicates the inhibitor causes significant cell death, and cell number is less than originally seeded cell number.)",0.7 × 10^5,92%,"* (indicates the inhibitor causes significant cell death, and cell number is less than originally seeded cell number.)",2.7 × 10^5,62%,1.7 × 10^5,30%,0.5 × 10^5,81%,"cells that went to apoptosis upon treatment [3]: all; cells that went to apoptosis upon treatment [6]: significant number; cells that went to apoptosis upon treatment [8]: significant number; Treated (cell number × 10^5) [8]: 0.2 ± 0.05 × 10^5; Treated (cell number × 10^5) [12]: 0.6 ± 0.1 × 10^5; % inhibiton [12]: 80%; Treated (cell number × 10^5) [13]: 1.7 × 10^5; % inhibiton [13]: 63%; cells that went to apoptosis upon treatment [14]: all; Treated (cell number × 10^5) [14]: 0 × 10^5; % inhibiton [14]: * (indicates the inhibitor causes significant cell death, and cell number is less than originally seeded cell number.)"
CN(C)CC1CCn2c(c(C3=C(c4cn(C)c5ccccc45)C(=O)NC3=O)c3ccccc32)C1.Cl (stereo not drawn) [Ro31-0432],10-60%,9.2 × 10^5,10%,2.4 × 10^5,43%,1.2 ± 0.1 × 10^5,31%,4.2 × 10^5,21%,1.3 × 10^5,60%,1.4 × 10^5,81%,30%,6.0 × 10^5,15%,1.7 × 10^5,30%,1.3x ± × 10^5,48%,Treated (cell number × 10^5) [12]: 2.3 × 10^5; % inhibiton [12]: 19%; Treated (cell number × 10^5) [13]: 3.0 × 10^5; % inhibiton [13]: 19%; Treated (cell number × 10^5) [14]: 2.1 × 10^5; % inhibiton [14]: 44%
Cn1cc(C2=C(c3cn(CCCSC(=N)N)c4ccccc34)C(=O)NC2=O)c2ccccc21 [Ro31-8220],60-94%,1.4 × 10^5,85%,0.4 × 10^5,90%,0 × 10^5,"* (indicates the inhibitor causes significant cell death, and cell number is less than originally seeded cell number.)",2.1 × 10^5,60%,6.0 × 10^5,"* (indicates the inhibitor causes significant cell death, and cell number is less than originally seeded cell number.)",0.5 × 10^5,94%,"* (indicates the inhibitor causes significant cell death, and cell number is less than originally seeded cell number.)",2.7 × 10^5,62%,0 × 10^5,"* (indicates the inhibitor causes significant cell death, and cell number is less than originally seeded cell number.)",0.4 × 10^5,85%,"cells that went to apoptosis upon treatment [4]: all; cells that went to apoptosis upon treatment [6]: significant number; cells that went to apoptosis upon treatment [8]: significant number; Treated (cell number × 10^5) [8]: 0.2 ± 0.05 × 10^5; cells that went to apoptosis upon treatment [10]: all; cells that went to apoptosis upon treatment [12]: all; Treated (cell number × 10^5) [12]: 0 × 10^5; % inhibiton [12]: * (indicates the inhibitor causes significant cell death, and cell number is less than originally seeded cell number.); Treated (cell number × 10^5) [13]: 0.6 × 10^5; % inhibiton [13]: 85%; cells that went to apoptosis upon treatment [14]: all; Treated (cell number × 10^5) [14]: 0 × 10^5; % inhibiton [14]: * (indicates the inhibitor causes significant cell death, and cell number is less than originally seeded cell number.)"
